Measurements as given in patent publication US9333202B2, “Non-retinoid antagonists for treatment of age-related macular degeneration and stargardt disease” (THE TRUSTEES OF COLUMBIA UNIVERSITY IN THE CITY OF NEW YORK, priority 2012, dated 2016).
“Also recorded” adds a separate entry of the source.

Columns and labels:
[1] = molecular target: T1, human RBP4 (Homo sapiens, UniProt P02753); assay: Scintillation proximity (SPA) RBP4 binding assay
T1 construct: Untagged human RBP4 purified from urine of tubular proteinuria patients; purchased Fitzgerald Industries International; host or cells: human urine (tubular proteinuria patients)
Method: Untagged human RBP4 purified from urine of tubular proteinuria patients was purchased from Fitzgerald Industries International. It was biotinylated using the EZ-Link Sulfo-NHS-LC-Biotinylation kit from Pierce following the manufacturer's recommendations. Binding experiments were performed in 96-well plates (OptiPlate, PerkinElmer) in a final assay volume of 100 μl per well in SPA buffer (1×PBS, pH 7.4, 1 mM EDTA, 0.1% BSA, 0.5% CHAPS). The reaction mix contained 10 nM ^3H-Retinol (48.7 Ci/mmol; PerkinElmer), 0.3 mg/well Streptavidin-PVT beads, 50 nM biotinylated RBP4 and a test compound. Nonspecific binding was determined in the presence of 20 μM of unlabeled retinol. The reaction mix was assembled in the dark under dim red light. The plates were sealed with clear tape (TopSeal-A: 96-well microplate, PerkinElmer), wrapped in the aluminum foil, and allowed to equilibrate 6 hours at room temperature followed by overnight incubation at +4° C. Radiocounts were measured using a TopCount NXT counter (Packard Instrument Company).

[2] = molecular target: T2, RBP4-TTR interaction (Homo sapiens, UniProt P02753); assay: HTRF/TR-FRET assay for retinol-dependent RBP4-TTR interaction (1 μM retinol); type: biochemical; parameters: human RBP4 fragment (amino acids 19-201) was expressed in the Gold(DE3)pLysS E. coli strain; made in house; host or cells: E. coli Gold(DE3)pLysS (Stratagene), pMAL-c4x vector
Excerpt: Bacterially expressed MBP-RBP4 and untagged TTR were used in this assay. For the use in the TR-FRET assay the maltose binding protein (MBP)-tagged human RBP4 fragment (amino acids 19-201) was expressed in the Gold(DE3)pLysS E. coli strain (Stratagene) using the […] vector. Following cell lysis, recombinant RBP4 was purified from the soluble fraction using the ACTA FPLC system (GE Healthcare) equipped with the 5-ml the MBP Trap HP column. Human untagged TTR was purchased from Calbiochem. Untagged TTR was labeled directly with Eu^3+ Cryptate-NHS using the HTRF Cryptate Labeling kit from CisBio following the manufacturer's recommendations. HTRF assay was performed in white low volume 384 well plates (Greiner-Bio) in a final assay volume of 16 μl per well. The reaction buffer contained 10 mM Tris-HCl pH 7.5, 1 mM DTT, 0.05% NP-40, 0.05% Prionex, 6% glycerol, and 400 mM KF. Each reaction contained 60 nM MBP-RBP4 and 2 nM TTR-Eu along with 26.7 nM of anti-MBP antibody conjugated with d2 (Cisbio). Titration of test compounds in this assay was conducted in the presence of 1 μM retinol. All reactions were assembled in the dark under dim red light and incubated overnight at +4° C. wrapped in aluminum foil. TR-FRET signal was measured in the SpectraMax M5e Multimode Plate Reader (Molecular Device). Fluorescence was excited at 337 nm and two readings per well were taken: Reading 1 for time-gated energy transfer from Eu(K) to d2 (337 nm excitation, 668 nm emission, counting delay 75 microseconds, counting window 100 microseconds) and Reading 2 for Eu(K) time-gated fluorescence (337 nm excitation, 620 nm emission, counting delay 400 microseconds, counting window 400 microseconds). The TR-FRET signal was expressed as the ratio of fluorescence intensity: Flu665/Flu620×10,000.

[3] = molecular target: T2, RBP4-TTR interaction; assay: TR-FRET (HTRF) assay for antagonists of retinol-induced RBP4-TTR interaction, agonist and antagonist mode (Example 2); type: biochemical; parameters: made in house; host or cells: E. coli; details: agonist mode, dose titration
Excerpt: TR-FRET (Time-Resolved Fluorescence Resonance Energy Transfer) is an assay format that can be used in characterization of compounds affecting protein-protein interactions (31-33). […] In the presence of retinol, RBP4-TTR interaction induces FRET that can be registered as increased ratio of […] fluorescence signals. Binding of a desired RBP4 antagonist displaces retinol and induces hindrance for RBP4-TTR interaction resulting in the decreased FRET signal (FIG. 7).
The assay was developed using E. coli-expressed MBP-tagged RBP4 and commercially available TTR labeled directly with Eu3+ cryptate. In addition to MBP-RBP4 and Eu3+ (K)-TTR, a detector reagent anti-MBP-d2 was present in the mix. The assay was first optimized in the agonist mode; sensitivity and dynamic range of the assay was […] in respect to RBP4, TTR and detection reagent concentrations.

Binding to RBP4 in vitro (in words) [1]	IC50 ([1]; 10 nM 3H-retinol, 50 nM biotinylated RBP4, each value one experiment, read-out: IC50 in SPA-based RBP4 binding assay)	IC50 ([2]; in the presence of 1 μM retinol, each value one experiment, read-out: IC50 in HTRF-based retinol-dependent RBP4-TTR interaction assay)	Induction of RBP4-TTR interaction [3]	Structure (SMILES)	Antagonism of RBP4-TTR interaction in vitro (in words) [2]
bind to RBP4	19.9 nM	199 nM	–	O=C(O)c1cnccc1NC(=O)N1CCC(c2ccccc2C(F)(F)F)CC1 [Compound 65]	antagonize retinol-dependent RBP4-TTR interaction; also recorded: antagonize RBP4-TTR interaction in vitro at biologically significant concentrations
–	–	–	did not induce RBP4-TTR interaction	CC1=C(/C=C/C(C)=C/C=C/C(C)=C/C(=O)Nc2ccc(O)cc2)C(C)(C)CCC1 [fenretinide, N-(4-hydroxy-phenyl)retinamide]	–
